Assay results: ChEMBL document CHEMBL1131644, “1-Methoxy-agroclavine from Penicillium sp. WC75209, a novel inhibitor of the Lck tyrosine kinase” (Bioorg Med Chem Lett, 1998)
Calls of active or inactive are those of the source. No cut-off for these calls is given here.

Columns and labels:
[1] = molecular target: T1, Tyrosine-protein kinase Lck (Homo sapiens, UniProt P06239); assay: Inhibition of p56 lck autophosphorylation, gamma-[33P]ATP incorporation (Inactive)
Target sequence in this assay (P06239 whole entry): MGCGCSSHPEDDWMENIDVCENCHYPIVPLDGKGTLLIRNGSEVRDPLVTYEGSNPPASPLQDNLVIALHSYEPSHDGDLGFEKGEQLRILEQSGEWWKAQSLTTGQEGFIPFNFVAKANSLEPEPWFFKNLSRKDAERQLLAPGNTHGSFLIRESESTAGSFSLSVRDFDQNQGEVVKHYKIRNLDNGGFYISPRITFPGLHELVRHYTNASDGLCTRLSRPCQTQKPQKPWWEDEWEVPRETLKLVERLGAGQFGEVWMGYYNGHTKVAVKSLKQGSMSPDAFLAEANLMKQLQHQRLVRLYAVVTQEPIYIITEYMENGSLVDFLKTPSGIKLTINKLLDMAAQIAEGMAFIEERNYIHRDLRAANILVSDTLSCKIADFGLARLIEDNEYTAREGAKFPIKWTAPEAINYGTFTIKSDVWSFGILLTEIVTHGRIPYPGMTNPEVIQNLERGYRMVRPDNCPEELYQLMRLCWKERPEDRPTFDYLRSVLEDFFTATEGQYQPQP

[2] = molecular target: T2, Tyrosine-protein kinase SYK (Homo sapiens, UniProt P43405); assay: Inhibition of p72 syk autophosphorylation (Inactive)
[3] = molecular target: T3, Tyrosine-protein kinase Blk (Homo sapiens, UniProt P51451); assay: (§1) Inhibition of p74 Blk tyrosine kinase autophosphorylation (Inactive)
[4] = molecular target: T4, CaM kinase II (Homo sapiens) (UniProt Q13557+Q13555+Q13554+Q9UQM7); assay: (§2) Inhibition of [Ca(2+)]/Calmodulin-dependent Type II protein kinase at 10 uM; format: protein assay
[5] = molecular target: Tyrosine-protein kinase Fyn (Homo sapiens) (UniProt P06241); assay: Inhibition of Fyn protein kinase at 10 uM
[6] = molecular target: Receptor tyrosine-protein kinase erbB-2 (Homo sapiens) (UniProt P04626); assay: Inhibition of Her2, ErbB2 receptor tyrosine kinase at 10 uM
[7] = molecular target: T1, Tyrosine-protein kinase Lck; assay: Inhibition of Lck protein kinase at 10 uM
Target sequence in this assay (P06239 2-509 limits assumed): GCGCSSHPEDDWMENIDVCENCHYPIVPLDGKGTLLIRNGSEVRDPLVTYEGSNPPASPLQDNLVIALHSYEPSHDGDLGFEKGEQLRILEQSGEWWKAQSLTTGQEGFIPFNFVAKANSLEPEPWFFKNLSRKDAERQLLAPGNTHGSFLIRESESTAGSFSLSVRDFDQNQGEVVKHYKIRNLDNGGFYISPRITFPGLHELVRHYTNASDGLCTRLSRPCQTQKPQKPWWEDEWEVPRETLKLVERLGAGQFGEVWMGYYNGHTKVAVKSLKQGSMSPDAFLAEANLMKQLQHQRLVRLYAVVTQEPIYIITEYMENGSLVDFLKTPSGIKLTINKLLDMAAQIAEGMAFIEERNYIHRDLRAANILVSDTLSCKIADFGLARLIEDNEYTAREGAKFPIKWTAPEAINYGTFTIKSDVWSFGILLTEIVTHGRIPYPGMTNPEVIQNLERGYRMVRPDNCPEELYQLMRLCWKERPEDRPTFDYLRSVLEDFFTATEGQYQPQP

M109 = assay: Cytotoxic effect on M109 mouse lung carcinoma cells at 40 uM (No effect); format: functional, cell-based
[8] = molecular target: Protein kinase C beta type (Homo sapiens) (UniProt P05771); assay: Inhibition of Protein Kinase C beta at 10 uM Histone H1 substrate (Inactive)
[9] = molecular target: Protein kinase C alpha type (Homo sapiens) (UniProt P17252); assay: Inhibition of Protein kinase C alpha at 10 uM Histone H1 substrate
[10] = molecular target: T4, CaM kinase II (Homo sapiens); assay: as §2; format: protein assay; remark: listed apart in the source
[11] = molecular target: Protein kinase C gamma type (Homo sapiens) (UniProt P05129); assay: Inhibition of Protein Kinase C gamma at 10 uM Histone H1 substrate
[12] = Inhibition of cAMP-dependent protein kinase at 10 uM Histone H1 substrate
[13] = molecular target: T1, Tyrosine-protein kinase Lck; assay: Inhibition of p56 lck autophosphorylation, gamma-[33P]ATP incorporation
Target sequence in this assay (P06239 whole entry): as the sequence (P06239 whole entry) above

[14] = molecular target: T2, Tyrosine-protein kinase SYK; assay: Inhibition of p72 syk autophosphorylation
[15] = molecular target: T3, Tyrosine-protein kinase Blk; assay: as §1; remark: listed apart in the source
Target sequence in this assay (P51451 2-505 limits assumed): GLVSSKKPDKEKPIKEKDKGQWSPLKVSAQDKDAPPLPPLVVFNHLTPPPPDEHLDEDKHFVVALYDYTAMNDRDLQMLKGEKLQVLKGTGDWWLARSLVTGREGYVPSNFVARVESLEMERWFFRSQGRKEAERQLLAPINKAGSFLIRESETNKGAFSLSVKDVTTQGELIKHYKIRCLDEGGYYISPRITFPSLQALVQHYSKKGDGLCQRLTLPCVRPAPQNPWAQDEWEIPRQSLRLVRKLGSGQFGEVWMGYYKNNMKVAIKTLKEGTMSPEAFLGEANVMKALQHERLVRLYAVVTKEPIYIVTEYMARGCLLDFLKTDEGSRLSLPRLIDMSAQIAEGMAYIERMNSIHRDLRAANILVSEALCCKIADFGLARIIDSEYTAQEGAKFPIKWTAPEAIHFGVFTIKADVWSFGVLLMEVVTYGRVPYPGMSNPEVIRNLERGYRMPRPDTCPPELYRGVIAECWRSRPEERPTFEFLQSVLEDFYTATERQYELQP

[16] = molecular target: Epidermal growth factor receptor (Homo sapiens) (UniProt P00533); conditions: 10 uM
Description: Inhibition of Epidermal growth factor receptor at 10 uM

Tyrosine-protein kinase Fyn (Homo sapiens), sequence (P06241 2-537 limits assumed): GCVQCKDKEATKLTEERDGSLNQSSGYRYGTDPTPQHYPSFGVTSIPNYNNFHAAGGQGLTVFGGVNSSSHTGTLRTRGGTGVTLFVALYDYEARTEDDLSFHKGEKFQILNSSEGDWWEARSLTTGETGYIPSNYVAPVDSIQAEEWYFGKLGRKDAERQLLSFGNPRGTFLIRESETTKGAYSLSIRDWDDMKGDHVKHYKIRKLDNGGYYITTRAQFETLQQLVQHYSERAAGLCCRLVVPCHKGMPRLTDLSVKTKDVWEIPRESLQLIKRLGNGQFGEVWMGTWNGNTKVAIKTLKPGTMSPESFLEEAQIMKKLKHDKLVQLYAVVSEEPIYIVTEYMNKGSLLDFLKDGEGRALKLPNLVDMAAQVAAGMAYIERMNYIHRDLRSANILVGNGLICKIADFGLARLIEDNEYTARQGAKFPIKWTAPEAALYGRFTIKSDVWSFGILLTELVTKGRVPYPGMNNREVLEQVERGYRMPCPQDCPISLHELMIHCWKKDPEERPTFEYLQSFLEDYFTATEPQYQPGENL
Receptor tyrosine-protein kinase erbB-2 (Homo sapiens), sequence (P04626 whole entry): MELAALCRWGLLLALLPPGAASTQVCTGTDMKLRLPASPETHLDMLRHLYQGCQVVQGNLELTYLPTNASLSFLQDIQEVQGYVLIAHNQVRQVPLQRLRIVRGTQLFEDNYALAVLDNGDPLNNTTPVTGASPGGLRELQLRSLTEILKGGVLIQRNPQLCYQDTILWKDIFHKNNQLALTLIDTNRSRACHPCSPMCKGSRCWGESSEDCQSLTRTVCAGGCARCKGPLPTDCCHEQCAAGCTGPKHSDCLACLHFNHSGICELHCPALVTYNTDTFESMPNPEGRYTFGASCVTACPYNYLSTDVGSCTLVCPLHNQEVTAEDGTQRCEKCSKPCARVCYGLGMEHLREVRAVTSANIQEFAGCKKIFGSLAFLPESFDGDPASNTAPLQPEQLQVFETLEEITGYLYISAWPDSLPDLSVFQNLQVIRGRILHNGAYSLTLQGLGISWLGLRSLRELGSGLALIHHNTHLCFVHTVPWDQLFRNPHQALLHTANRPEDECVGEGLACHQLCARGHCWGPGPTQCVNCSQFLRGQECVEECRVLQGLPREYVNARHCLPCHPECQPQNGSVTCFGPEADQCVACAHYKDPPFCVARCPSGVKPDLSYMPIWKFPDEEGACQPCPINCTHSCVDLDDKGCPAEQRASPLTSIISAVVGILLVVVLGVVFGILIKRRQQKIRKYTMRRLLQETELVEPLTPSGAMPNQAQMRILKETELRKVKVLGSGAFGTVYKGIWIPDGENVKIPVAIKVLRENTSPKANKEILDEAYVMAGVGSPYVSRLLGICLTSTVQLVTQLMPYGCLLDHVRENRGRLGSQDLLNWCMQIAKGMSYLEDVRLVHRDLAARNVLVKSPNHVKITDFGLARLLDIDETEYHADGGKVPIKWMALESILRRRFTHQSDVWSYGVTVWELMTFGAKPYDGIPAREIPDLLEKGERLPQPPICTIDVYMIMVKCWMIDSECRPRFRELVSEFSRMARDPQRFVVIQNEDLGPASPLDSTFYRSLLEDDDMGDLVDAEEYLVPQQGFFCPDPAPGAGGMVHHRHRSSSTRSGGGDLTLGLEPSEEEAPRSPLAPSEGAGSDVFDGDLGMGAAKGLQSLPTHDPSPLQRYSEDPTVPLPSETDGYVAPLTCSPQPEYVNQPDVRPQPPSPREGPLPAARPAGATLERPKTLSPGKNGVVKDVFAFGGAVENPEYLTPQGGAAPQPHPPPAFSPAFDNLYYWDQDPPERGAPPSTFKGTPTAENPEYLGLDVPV

| Structure (SMILES) | IC50 [1] | IC50 [2] | IC50 [3] | inhibition [4] | inhibition [5] [%] | inhibition [6] [%] | inhibition [7] [%] | Cytotoxicity (M109) | inhibition [8] | inhibition [9] | inhibition [10] | inhibition [11] | inhibition [12] | IC50 [13] [µM] | IC50 [14] [µM] | inhibition [15] | inhibition [16] [%] |
| --- | --- | --- | --- | --- | --- | --- | --- | --- | --- | --- | --- | --- | --- | --- | --- | --- | --- |
| CN1C[C@H](CO)C=C2c3cccc4[nH]cc(c34)C[C@H]21 | Not Active | – | – | – | – | – | – | – | – | – | – | – | – | – | – | – | – |
| CC1=C[C@@H]2c3cccc4[nH]cc(c34)C[C@H]2N(C)C1 [AGROCLAVINE] | Not Active | Not Active | Not Active | – | – | – | – | – | – | – | – | – | – | – | – | – | – |
| COn1cc2c3c(cccc31)[C@@H]1C=C(C)CN(C)[C@@H]1C2 | – | – | – | inactive | 19 | 9 | 42 | inactive | inactive | inactive | inactive | inactive | inactive | 8.5 | 285 | inactive | 14 |
